Assay results as given in BindingDB's records for doi:10.7270/Q2PR7TDC (Burnham Center For Chemical Genomics, 2010).

Assay: analog potency on TNFa NF-kB signaling – cell-based, revised, SAR follow-up (AID 2337)

SMILES	IC50 [µM]
Cc1cc(SCC(=O)OCC(=O)C(C#N)c2nc3ccccc3[nH]2)c(C)cc1Br (stereo not drawn)	> 20
CCCOC1=CC(=O)C(C=NNC(=S)Nc2ccccc2[N+](=O)[O-])C=C1 (stereo not drawn) [1-(2-nitrophenyl)-3-[[(E)-(6-oxo-4-propoxy-1-cyclohexa-2,4-dienylidene)methyl]amino]thiourea]	0.88
Cc1cc(Br)ccc1SCC(=O)OCC(=O)C(C#N)c1nc2ccccc2[nH]1 (stereo not drawn) [2-[(4-bromo-2-methylphenyl)thio]acetic acid [3-cyano-3-(1,3-dihydrobenzimidazol-2-ylidene)-2-oxopropyl] ester]	> 20
Cc1ccc(O)c(/N=C/C2=CC(Cc3ccccc3)C=C([N+](=O)[O-])C2=O)c1 (stereo not drawn) [(6E)-6-[[(5-methyl-2-oxidanyl-phenyl)amino]methylidene]-2-nitro-4-(phenylmethyl)cyclohexa-2,4-dien-1-one]	> 20
Cc1ccc(C)c(SCC(=O)OCC(=O)C(C#N)c2nc3ccccc3[nH]2)c1 (stereo not drawn) [MLS000392255]	> 20
N#CC(C(=O)COC(=O)CSc1ccc(Cl)cc1)c1nc2ccccc2[nH]1 (stereo not drawn) [MLS-0208254.0001]	> 20
CCOC1=CC=CC(C=NNC(=S)Nc2ccccc2[N+](=O)[O-])C1=O (stereo not drawn) [MLS-0270696.0001]	0.414
N#CC(C(=O)COC(=O)CSc1ccc2ccccc2c1)c1nc2ccccc2[nH]1 (stereo not drawn) [[3-cyano-3-(1,3-dihydrobenzimidazol-2-ylidene)-2-oxopropyl] 2-naphthalen-2-ylsulfanylacetate]	> 20
